Values quoted from earlier work in patent US20090087487A1, “Paliperidone sustained release formulation” (priority 2007, published 2009).

solubility in 0.1 N hydrochloric acid (0.1 N hydrochloric acid): soluble
solubility in methanol (methanol): soluble
solubility in methylene chloride (methylene chloride): freely soluble
solubility in water (water): practically insoluble
Compound: Cc1nc2n(c(=O)c1CCN1CCC(c3noc4cc(F)ccc34)CC1)CCCC2O (stereo not shown) [Paliperidone, 4H-Pyrido[1,2-a]pyrimidin-4-one, 3-[2-[4-(6-fluoro-1,2-benzisoxazol-3-yl)-1-piperidinyl]ethyl]-6,7,8,9-tetrahydro-9-hydroxy-2-methyl]
